The conditions of data set [1]: Table 1; cited from earlier work.
The nature of data set [2]: Electroacoustic sonic amplitude (ESA) electrokinetics of dye slurries as a function of pH. It is filed as physicochemical.
The conditions of data set [3]: Langmuir 8, 291 (1992), cited from earlier work.
A short description of data set [4]: Buffering of S1 slurry: pH measured after additions of aqueous buffering salt. In kind it is physicochemical. As to conditions: small additions of 0.1 mole/L salt to S1 slurry.
Method: Measurements of pH were made using a Corning combination pH electrode, calibrated with VWR buffers of pH 4.0 and pH 7.0, using a Radiometer Copenhagen PHM63 pH meter. Equilibrated measurements were taken at about 24° C. while stirring the solutions or slurries.
About 97.0 g of the above described S1 slurry were placed in a 200 mL beaker upon a magnetic stirrer, and this slurry was moderately stirred using a magnetic stirring bar.
About 93.9 g of the above described S1 slurry were placed in a 200 mL beaker upon a magnetic stirrer, and was moderately stirred. […] Aliquots of 0.1 mole/L aqueous sodium citrate were added, and pH was recorded after each addition.
About 95.7 g of the above described S1 slurry were placed in a 200 mL beaker with moderate stirring. […] Aliquots of 0.1 mole/L aqueous sodium tartrate were added, and pH was recorded.
About 95.4 g of the above described S1 slurry were placed in a 200 mL beaker and was moderately stirred.
About 93.3 g of the above described S1 slurry were placed in a 200 mL beaker and stirred.
Setting [5] is: FD2 slurry without surfactant, Texter.

Molecules are shown by their SMILES. Entries after “also recorded” stand apart in the source; their conditions may differ. Where two headings read alike, the source gives them in different places.

What is called pKa is the negative logarithm of the acid dissociation constant. As to `O=S1(=O)CCCCN1`, the “pKa at 25° C.” value in data set [1] is given as 12.02. For the compound `CC1=NN(c2ccc(C(=O)O)cc2)C(=O)C1=CC=Cc1c(C)nn(-c2ccc(C(=O)O)cc2)c1O` [FD1], the “lowest apparent pKa relative to FD2” value in data set [2] (FD1 slurries compared with FD2) is reported as “three pH units lower”. For the same compound, in data set [2] (FD1 slurries without dispersing aid, FIG. 2), the “lowest apparent pKa” value is recorded as “about 2”. The “solubility of the dye with increasing pH” value in data set [2] (above pH 5, upturn in ESA) was “marked increased solubility”. Moreover, in data set [2] (sign of charge, ESA), the intrinsic electrokinetic charge entry is listed as “negative”.

Take `CC1=NN(c2ccc(C(=O)O)cc2)C(=O)C1=Cc1c(C)nn(-c2ccc(C(=O)O)cc2)c1O` [FD2]: in data set [3] (setting [5]), the “pH interval of abrupt S-shaped ESA transition” value is listed as 4-6 pH and the “predominately carboxy group-based surface pKa” value is reported as “about 5.0”. In addition, the intrinsic electrokinetic charge result in data set [3] (sign of charge, shown earlier by Texter) was “negative”.

For the compound `O=C(O)c1ccco1` [Furoic acid], the “pKa at 25° C.” value in data set [1] is 3.17. With `CC(=O)O` [sodium acetate], the “effect on slurry pH / pH control (in words)” value in data set [4] is listed as “increases the slurry pH to a significant extent; also recorded: significantly increases the slurry pH”. Same read-out and setting: to `O=C(O)c1ccccc1` [sodium benzoate] belongs “very effective at providing significant pH control at relatively low concentrations”. On the same count and under the same terms, the value for `O=C([O-])c1ccccc1O.[Na+]` [sodium salicylate] was “provides some pH control”.

Values taken from patent publication US5750321A, “Process for buffering concentrated aqueous slurries” (priority 1997, dated 1998).
